PMC11659602, “Discovering covalent cyclic peptide inhibitors of peptidyl arginine deiminase 4 (PADI4) using mRNA-display with a genetically encoded electrophilic warhead” (Communications Chemistry, 2024)
Where “and” joins values, the source holds several entries; their conditions need not be identical. Equal values may be shown once. Read-outs that look alike come from different tables or passages of the source. Where a SMILES comes first, the peptide text is derived from it. Bridges are numbered along the chain shown (N, C = ends). [ ]: non-standard residue; d: D form. Orn(fluoroacetimidoyl) = N=C(CF)NCCC[C@H](N)C(=O)O

Experiments:
[1] = target: T1, PADI4 (Homo sapiens, UniProt Q9UM07); test: Surface plasmon resonance (SPR), single cycle kinetics; assay type: binding; conditions: for Ki: k-1/k+1
T1 construct: His6; made in house
Description: S8. Surface plasmon resonance (SPR)
Using a Biacore S200 (GE Healthcare), biotinylated His-PADI4 (80 nM) was immobilised on a CAP chip (GE Healthcare) to a response unit of approx. 3000. At 25 °C, single cycle kinetics mode was used with 5 samples of a 3-fold dilution series of peptides PADI4_3_H4(2), cP4_2, […]
mM HEPES, 150 mM NaCl, 10 mM CaCl2, 0.05% Tween-20, 0.1% DMSO (pH 7.5). After each cycle, regeneration of the chip was carried out as per the manufacturer’s protocol. Data were analysed with the Biacore S200 Evaluation Software, each in triplicate. Warhead-containing peptides were analysed using the two-state reaction model, with the rate constant for the reverse second step (k-2) set to zero. The equilibrium constant of the reversible binding step, Ki, was calculated as the ratio of k-1/k+1 and the rate constant of the irreversible chemical step, kinact, as k+2. The Arg4, Cit4 and Me4 peptides were fitted using a 1:1 binding model. […]

[2] = target: T1, PADI4; test: COLDER inhibition assay, BAEE substrate, with or without 1 h preincubation; assay type: biochemical; conditions: for IC50: COLDER; for remaining activity at 0.003 µM: peptide 0.003 µM; for remaining activity at 0.01 µM: peptide 0.01 µM; for remaining activity at 0.03 µM: peptide 0.03 µM; for remaining activity at 0.1 µM: peptide 0.1 µM; for remaining activity at 0.3 µM: peptide 0.3 µM; for remaining activity at 1 µM: peptide 1 µM; for remaining activity at 3 µM: peptide 3 µM; for remaining activity at 10 µM: peptide 10 µM; for remaining activity at 30 µM: peptide 30 µM
Description: PADI4 citrullination activity was analysed using the COLDER assay in 96-well plates. Peptide dilutions were prepared from a 500 µM stock, to give a 10 times concentrated dilution series (500 µM, 300 µM, 100 µM, 30 µM, 10 µM, 3 µM, 1 µM, 0.3 µM, 0.1 µM and 0.03 µM) in COLDER buffer (50 mM HEPES, 150 mM NaCl and 2 mM DTT, pH 7.5) containing 1% DMSO. In triplicate, each was diluted 10-fold further when mixed with 50 nM His-PADI4, 0.6 mg/mL BSA and 10 mM CaCl2, in COLDER buffer. With or without one hour of incubation, 10 mM N^α-Benzoyl-L-arginine ethyl ester hydrochloride (BAEE, Merck) was added to initiate the reaction (50 µL final volume). After 30 min at rt, EDTA (50 mM final concentration) was used to quench the reaction and 200 µL of COLDER solution containing 20 mM Diacetyl monoxime/2,3-butanedione monoxime (Merck), 0.5 mM Thiosemicarbazide (Acros Organics), 2.25 M H3PO4, 4.5 M H2SO4 and 1.5 mM NH4Fe(SO4)2.12H2O was added to each well. Samples were incubated for 20 min at 95 °C before measuring absorbance at 540 nm on a CLARIOstar Plus (BMG LABTECH). Data analysis was performed with GraphPad Prism. Data are presented as the average ± standard error of the mean from at least two independent replicates.

[3] = target: T1, PADI4; test: Incubation time-dependent COLDER assay IC50(t), Krippendorff fit; assay type: biochemical; conditions: for IC50: replicates, read-out: apparent IC50; for Ki / kinact: Krippendorff fit of IC50 vs time
Description: To determine KI and kinact of covalent peptide inhibitors, COLDER assays were used[52]. Peptide dilutions were prepared using 5-fold dilutions from 500 µM and 300 µM to 0.8 µM and 2.4 µM, respectively, at 1% DMSO in COLDER buffer (50 mM HEPES, 150 mM NaCl and 2 mM DTT, pH 7.5). The 9 peptide dilutions were added to a 96-well plate, alongside a 1% DMSO control. An equal volume of 10 mM BAEE was added to each well and the solution was homogenised by pipette mixing. This was mixed with 50 nM His-PADI4, 0.6 mg/mL BSA and 10 mM CaCl2, in COLDER buffer, to bring the final volume to 300 µL in each well. Alternatively, His-PAD1 (100 nM) /His-PADI2 (100 nM) /His-PADI3 (250 nM) were used. For assays with PADI1 and PADI3, 10 mM N^α-benzoyl-L-arginine methyl […] (BAME) was used as the substrate instead of BAEE[48],[58],[59]. At 15-minute intervals, for 5 timepoints, 50 µL of solution was taken from each well and quenched with 10 µL EDTA (300 mM). 200 µL of COLDER solution containing 20 mM diacetyl monoxime/2,3-butanedione monoxime (Merck), 0.5 mM thiosemicarbazide (Acros Organics), 2.25 M H3PO4, 4.5 M H2SO4 and 1.5 mM NH4Fe(SO4)2.12H2O was added to each well. Samples were incubated for 20 min at 95 °C before measuring absorbance at 540 nm on a CLARIOstar Plus (BMG LABTECH). IC50 values for each time point were determined using non-linear regression with GraphPad Prism. Incubation time–dependent potency IC50(t) against incubation time was fitted to the Krippendorff equation (below) to determine KI and kinact using a Python script[53],[59]. […] IC50t=KI1+S/KM⋅2−2e^−ηIC50⋅kinact⋅t/ηIC50⋅kinact⋅t−1 WhereηIC50=IC50t/KI1+S/KM+IC50t

[4] = each replicate, read-out: k2 / kinact
[5] = two-state reaction model, k+2, read-out: SPR kinact (converted)
[6] = 1 h preincubation of peptide and PADI4, 10 mM CaCl2, read-out: IC50 Values 1 h preincubation
[7] = T=0, values starred, read-out: PADI4 activity normalised to 0.1% DMSO
[8] = T=1, read-out: PADI4 activity normalised to 0.1% DMSO
[9] = T=0, read-out: PADI4 activity normalised to 0.1% DMSO
[10] = 1 h, T=1 (1 h preincubation), read-out: PADI4 activity, dose-response data of Figure S15 (individual replicates)
[11] = T=0 (no preincubation), read-out: PADI4 activity, dose-response data of Figure S15 (individual replicates)

T1 sequence (Q9UM07 whole entry): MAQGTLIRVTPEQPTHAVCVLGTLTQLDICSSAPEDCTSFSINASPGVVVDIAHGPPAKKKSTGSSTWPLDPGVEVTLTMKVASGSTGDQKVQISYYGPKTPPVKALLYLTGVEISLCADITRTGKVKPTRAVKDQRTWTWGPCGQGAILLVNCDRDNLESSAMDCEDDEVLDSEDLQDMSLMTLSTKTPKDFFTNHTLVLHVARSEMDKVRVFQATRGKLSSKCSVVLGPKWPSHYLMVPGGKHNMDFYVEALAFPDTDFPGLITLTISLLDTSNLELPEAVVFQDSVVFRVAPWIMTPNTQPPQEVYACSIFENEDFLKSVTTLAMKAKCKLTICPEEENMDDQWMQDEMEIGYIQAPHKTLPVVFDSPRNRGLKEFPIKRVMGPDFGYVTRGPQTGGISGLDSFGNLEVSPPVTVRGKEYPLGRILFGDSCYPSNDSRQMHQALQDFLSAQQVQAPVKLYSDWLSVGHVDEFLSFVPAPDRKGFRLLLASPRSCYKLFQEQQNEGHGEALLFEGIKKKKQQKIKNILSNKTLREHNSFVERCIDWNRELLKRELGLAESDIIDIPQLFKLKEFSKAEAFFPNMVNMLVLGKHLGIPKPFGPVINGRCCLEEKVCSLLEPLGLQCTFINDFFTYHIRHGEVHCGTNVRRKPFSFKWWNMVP

| kinact/KI [1] [M⁻¹ s⁻¹] | kinact [1, 4] [s⁻¹] | kinact [1, 5] [s⁻¹] | Ki ([1]; two-state reaction model) [µM] | IC50 [2, 6] [µM] | remaining activity at 0.003 µM [2, 7] [%] | remaining activity at 0.003 µM [2, 8] [%] | remaining activity at 0.01 µM [2, 7] [%] | remaining activity at 0.1 µM [2, 9] [%] | remaining activity at 1 µM [2, 9] [%] | remaining activity at 3 µM [2, 9] [%] | remaining activity at 10 µM [2, 9] [%] | kinact/KI [3] [M⁻¹ s⁻¹] | IC50 ([3]; 15 mins) | IC50 ([3]; 30 mins) | IC50 ([3]; 45 mins) | IC50 ([3]; 60 mins) | IC50 ([3]; 75 mins) | Ki [3] [µM] | kinact [3] [s⁻¹] | Structure (SMILES) | further results |
| --- | --- | --- | --- | --- | --- | --- | --- | --- | --- | --- | --- | --- | --- | --- | --- | --- | --- | --- | --- | --- | --- |
| 68000 | 0.001 | 0.00102 | 0.015 ± 0.002 | 0.065 ± 0.007 | 103 | 102 | 100 | 101 | 77.4 | 41.2 | 18.1 | 2480 | 5.47 µM and 4.15 µM and 5.26 µM | 2.46 µM and 1.82 µM and 2 µM | 1.86 µM and 1.33 µM and 1.52 µM | 1.43 µM and 1.06 µM and 1.16 µM | 1.24 µM and 1.01 µM and 1.09 µM | 1.1 ± 0.2 | 0.00267 | N=C(N)NCCC[C@@H]1NC(=O)[C@H](Cc2ccc(O)cc2)NC(=O)[C@H](Cc2c[nH]cn2)NC(=O)[C@H](CCCNC(=N)CF)NC(=O)[C@H](CC(=O)O)NC(=O)[C@H](CCCNC(=N)N)NC(=O)[C@@H](Cc2ccc(O)cc2)NC(=O)CSC[C@@H](C(=O)NCC(N)=O)NC(=O)[C@H](Cc2ccc(O)cc2)NC(=O)[C@H](CCCCN)NC(=O)[C@@H]2CCCN2C(=O)[C@H](Cc2c[nH]cn2)NC1=O [PADI4_3_H4(2), yRD(2)HYRHPKYCG] ({CH2CO}-[dY]RD[Orn(fluoroacetimidoyl)]HYRHPKYCG-NH2; thioether N-12) | k2 / kinact ([1]; each replicate, listed as P4_3_H4(2)): 0.0013 s⁻¹; remaining activity at 0.01 µM [2, 8]: 83.7%; remaining activity at 0.03 µM [2, 9]: 102%; remaining activity at 0.03 µM [2, 8]: 82.9%; remaining activity at 0.1 µM [2, 8]: 29%; remaining activity at 0.3 µM [2, 9]: 96.2% |
| 5720 | 0.0086 | 0.00917 | 1.6 ± 0.1 | 0.16 ± 0.02 | 99.1 | 99.2 | 99.2 | 100 | 93.8 | 79 | 49.3 | 300 | 27.7 µM and 48.2 µM and 40.3 µM | 12.5 µM and 21.4 µM and 18.5 µM | 8.85 µM and 10 µM and 8.94 µM | 6.22 µM and 7.03 µM and 7.47 µM | 5.35 µM and 5.67 µM and 6.53 µM | 4.3 ± 1.1 | 0.00128 | CC(C)[C@@H]1NC(=O)[C@@H](Cc2ccc(O)cc2)NC(=O)CSC[C@@H](C(=O)NCC(N)=O)NC(=O)[C@H](Cc2ccc(O)cc2)NC(=O)[C@H](CCCCN)NC(=O)[C@H](Cc2c[nH]c3ccccc23)NC(=O)[C@H](CCC(=O)O)NC(=O)[C@H](CCCCN)NC(=O)[C@H](CCCNC(=N)CF)NC(=O)[C@H](CO)NC(=O)[C@H](Cc2ccc(O)cc2)NC1=O [cP4_7, yVYS(2)KEWKYCG] ({CH2CO}-[dY]VYS[Orn(fluoroacetimidoyl)]KEWKYCG-NH2; thioether N-11) | k2 / kinact ([1]; each replicate): 0.0094 s⁻¹; IC50 ([2]; no preincubation of peptide and PADI4, 10 mM CaCl2, read-out: IC50 Values 0 h preincubation): 8 ± 1.2 µM; remaining activity at 30 µM [2, 9]: 20.9% |
|  | 0.0027 | 0.00317 | 0.81 ± 0.08 | 0.18 |  |  |  |  |  |  |  |  |  |  |  |  |  |  |  | CC[C@H](C)[C@@H]1NC(=O)[C@H](CCCNC(=N)N)NC(=O)[C@H](Cc2ccc(O)cc2)NC(=O)[C@H](CCCNC(=N)N)NC(=O)[C@H](CCC(=O)O)NC(=O)[C@H](CCCNC(=N)CF)NC(=O)[C@H](CC(N)=O)NC(=O)[C@H](CC(C)C)NC(=O)[C@@H](Cc2ccc(O)cc2)NC(=O)CSC[C@@H](C(=O)NCC(N)=O)NC(=O)[C@H](CO)NC1=O [cP4_18] ({CH2CO}-[dY]LN[Orn(fluoroacetimidoyl)]ERYRISCG-NH2; thioether N-11) | k2 / kinact ([1]; each replicate): 0.0019 s⁻¹; remaining activity at 0.003 µM [2, 10]: 101%; remaining activity at 0.01 µM [2, 10]: 99.7%; remaining activity at 0.03 µM [2, 10]: 95.4%; remaining activity at 0.1 µM [2, 10]: 77.6%; remaining activity at 0.3 µM [2, 10]: 35.4%; remaining activity at 1 µM [2, 10]: 10%; remaining activity at 0.003 µM [2, 11]: 106%; remaining activity at 0.01 µM [2, 11]: 108%; remaining activity at 0.03 µM [2, 11]: 107%; remaining activity at 0.1 µM [2, 11]: 110%; remaining activity at 0.3 µM [2, 11]: 107%; remaining activity at 1 µM [2, 11]: 102%; remaining activity at 3 µM [2, 11]: 94.6%; remaining activity at 10 µM [2, 11]: 64.3%; remaining activity at 30 µM [2, 11]: 31.1%; remaining activity at 50 µM ([2]; T=0 (no preincubation), peptide 50 µM, read-out: PADI4 activity, dose-response data of Figure S15 (individual replicates)): 21.4% |
